Assay results as given in the supplement of paper PMC5908809.

How the values were obtained:
[1] = tested on: IMC-1 (IL-2 20 ng/mL); test: percent inhibition of viability; higher = more inhibition; details: 72 h
[2] = tested on: SNK-6 (IL-2 2.5 ng/mL); test: as above; details: 72 h
[3] = tested on: YT (IL-2 2.5 ng/mL); test: as above; details: 72 h
[4] = tested on: KHYG-1 (IL-2 2.5 ng/mL); test: as above; details: 72 h
[5] = tested on: NK-YS (IL-2 2.5 ng/mL); test: as above; details: 72 h
[6] = tested on: normal primary NK cells, pool 2 (3 donors) (IL-2 2.5 ng/mL); test: as above; details: 72 h
[7] = tested on: KAI3 (IL-2 2.5 ng/mL); test: as above; details: 72 h
[8] = tested on: normal primary NK cells, pool 1 (3 donors), resting (IL-2 0 ng/mL); test: as above; details: 72 h
[9] = tested on: NK-92 (IL-2 2.5 ng/mL); test: as above; details: 72 h
[10] = tested on: NKL (IL-2 2.5 ng/mL); test: as above; details: 72 h
[11] = tested on: normal primary NK cells, pool 1 (3 donors) (IL-2 2.5 ng/mL); test: as above; details: 72 h
[12] = tested on: DERL-7 (IL-2 2.5 ng/mL); test: as above; details: 72 h
[13] = tested on: normal primary NK cells, pool 3 (3 donors) (IL-2 2.5 ng/mL); test: as above; details: 72 h
[14] = tested on: normal NK cells expanded with K562-aAPC; test: drug sensitivity score (DSS) (DSS units); higher = more sensitive; extreme values may be limits of the assay; details: 72 h; IL-2 2.5 ng/mL
Method: (§1)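 Drug sensitivity and resistance testing on K562-aAPC-expanded normal NK cells: 5 concentrations (10-fold steps over a 10,000-fold range), 72 h at 37 °C, viability by CellTiter-Glo normalised to DMSO and benzethonium chloride controls; DSS from the fitted curve.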

[15] = tested on: normal NK cells expanded with K562-aAPC; test: percent inhibition of viability; higher = more inhibition; details: 72 h, IL-2 2.5 ng/mL
Method: as §1

[16] = tested on: IMC-1 (IL-2 20 ng/mL); test: drug sensitivity score (DSS) (DSS units); higher = more sensitive; extreme values may be limits of the assay; details: 72 h
[17] = tested on: SNK-6 (IL-2 2.5 ng/mL); test: as above; details: 72 h
[18] = tested on: YT (IL-2 2.5 ng/mL); test: as above; details: 72 h
[19] = tested on: KHYG-1 (IL-2 2.5 ng/mL); test: as above; details: 72 h
[20] = tested on: NK-YS (IL-2 2.5 ng/mL); test: as above; details: 72 h
[21] = tested on: normal primary NK cells, pool 2 (3 donors) (IL-2 2.5 ng/mL); test: as above; details: 72 h
[22] = tested on: KAI3 (IL-2 2.5 ng/mL); test: as above; details: 72 h
[23] = tested on: normal primary NK cells, pool 1 (3 donors), resting (IL-2 0 ng/mL); test: as above; details: 72 h
[24] = tested on: NK-92 (IL-2 2.5 ng/mL); test: as above; details: 72 h
[25] = tested on: NKL (IL-2 2.5 ng/mL); test: as above; details: 72 h
[26] = tested on: normal primary NK cells, pool 1 (3 donors) (IL-2 2.5 ng/mL); test: as above; details: 72 h
[27] = tested on: DERL-7 (IL-2 2.5 ng/mL); test: as above; details: 72 h
[28] = tested on: normal primary NK cells, pool 3 (3 donors) (IL-2 2.5 ng/mL); test: as above; details: 72 h

Cc1nc(NC(=O)N2CCC[C@H]2C(N)=O)sc1-c1ccnc(C(C)(C)C(F)(F)F)c1 [Alpelisib] (max concentration tested 2500 nM)
percent inhibition of viability [%]
Details | 0.25 nM | 2.5 nM | 25 nM | 250 nM | 2500 nM
[1] | 3.85 | 3.43 | 5.77 | 4.62 | 5.3
[2] | -6.11 | 8.58 | 10.5 | 15.4 | 29
[3] | -0.82 | 0.14 | 1.96 | 2.35 | 13
[4] | -0.82 | 0.62 | 4.26 | 2.48 | 8.78
[5] | -0.06 | -1.74 | 4.37 | 2.5 | 12.7
[6] | -4.3 | -1.23 | 0.06 | 3.89 | 11.4
[7] | 6.58 | 6.32 | 4.01 | 8.23 | 30.4
[8] | -10.5 | 5.01 | -8.93 | 6.1 | 10.3
[9] | -1.19 | 0.59 | 11.2 | 7.16 | 16.2
[10] | -4.18 | 0.03 | 10.1 | 5.23 | 12.8
[11] | -6.99 | -1.42 | -4.27 | 3.43 | 6.48
[12] | -4.58 | -9.56 | -0.97 | -2.79 | 25.6
[13] | -7.64 | -5.69 | -6.05 | 0.32 | 2.93
[15] | 0.72 | 1.85 | -0.5 | 3.19 | 30.6

Details | drug sensitivity score
[14] | 1.85
[16] | 0
[17] | 3.22
[18] | 0.26
[19] | 0
[20] | 0.18
[21] | 0.14
[22] | 2.35
[23] | 0.03
[24] | 0.74
[25] | 0.2
[26] | 0
[27] | 0.82
[28] | 0
